According to the supplement of paper PMC13380429:

Legend:
Conditions in all cases: 72 h
U2OS [1] = assay: relative viability EC50 (midpoint between 100% and the lowest measured viability); higher = less toxic
Vero E6 [2] = assay: as above
Caco-2 [3] = assay: as above
Calu-3 [4] = assay: as above
HepG2 [5] = assay: as above
U2OS [6] = assay: cell viability relative to DMSO; higher = less toxic
Vero E6 [7] = assay: as above
Caco-2 [8] = assay: as above
Calu-3 [9] = assay: as above
HepG2 [10] = assay: as above
U2OS [11] = assay: drug sensitivity score (DSS) for viability; higher = more toxic; extreme values may be limits of the assay
Vero E6 [12] = assay: as above
Caco-2 [13] = assay: as above
Calu-3 [14] = assay: as above
HepG2 [15] = assay: as above

Row | SMILES | relative viability EC50 (U2OS [1]) | relative viability EC50 (Vero E6 [2]) | relative viability EC50 (Caco-2 [3]) | relative viability EC50 (Calu-3 [4]) | relative viability EC50 (HepG2 [5]) | cell viability (U2OS [6]; 1 nM) | cell viability (U2OS [6]; 10 nM) | cell viability (U2OS [6]; 100 nM) | cell viability (U2OS [6]; 1000 nM) | cell viability (U2OS [6]; 10000 nM) | cell viability (Vero E6 [7]; 1 nM) | cell viability (Vero E6 [7]; 10 nM) | cell viability (Vero E6 [7]; 100 nM) | cell viability (Vero E6 [7]; 1000 nM) | cell viability (Vero E6 [7]; 10000 nM) | cell viability (Caco-2 [8]; 1 nM) | cell viability (Caco-2 [8]; 10 nM) | cell viability (Caco-2 [8]; 100 nM) | cell viability (Caco-2 [8]; 1000 nM) | cell viability (Caco-2 [8]; 10000 nM) | cell viability (Calu-3 [9]; 1 nM) | cell viability (Calu-3 [9]; 10 nM) | cell viability (Calu-3 [9]; 100 nM) | cell viability (Calu-3 [9]; 1000 nM) | cell viability (Calu-3 [9]; 10000 nM) | cell viability (HepG2 [10]; 1 nM) | cell viability (HepG2 [10]; 10 nM) | cell viability (HepG2 [10]; 100 nM) | cell viability (HepG2 [10]; 1000 nM) | cell viability (HepG2 [10]; 10000 nM) | drug sensitivity score (U2OS [11]) | drug sensitivity score (Vero E6 [12]) | drug sensitivity score (Caco-2 [13]) | drug sensitivity score (Calu-3 [14]) | drug sensitivity score (HepG2 [15])
1 | CCNC(=O)CCC/C=C\C[C@@H]1[C@@H](/C=C/[C@@H](O)CCc2ccccc2)[C@H](O)C[C@@H]1O [bimatoprost] | > 10 µM | > 10 µM | > 10 µM | > 10 µM | > 10 µM | 102% | 93.3% | 103% | 96.4% | 107% | 97.7% | 105% | 96.1% | 100% | 106% | 97.5% | 89.8% | 106% | 92.2% | 101% | 113% | 97.6% | 101% | 100% | 101% | 88.6% | 93% | 95.1% | 107% | 105% | 0 | 0 | 0 | 0 | 0
2 | C[C@@H](N)[C@H]1CC[C@H](C(=O)Nc2ccncc2)CC1 | > 10 µM | > 10 µM | > 10 µM | > 10 µM | > 10 µM | 99% | 102% | 91.1% | 102% | 92% | 97.8% | 99.1% | 96.4% | 93.7% | 92.2% | 101% | 95.3% | 96.2% | 104% | 108% | 84.6% | 97.2% | 104% | 114% | 122% | 97.8% | 96.8% | 95.2% | 84.5% | 99.3% | 0 | 0 | 0 | 0 | 0
3 | O=C(O)/C=C1\CCCc2ccccc2[C@H]1O (racemic) [NCS-382] | > 10 µM | > 10 µM | > 10 µM | > 10 µM | > 10 µM | 96.7% | 102% | 96% | 102% | 97.2% | 104% | 97.2% | 103% | 99.1% | 101% | 98.6% | 99.3% | 91.8% | 97% | 88.7% | 93.4% | 95.3% | 99.3% | 95.5% | 101% | 108% | 96.5% | 102% | 99.1% | 87.2% | 0 | 0 | 0 | 0 | 0.1
4 | Nc1ccncc1N [amifampridine] | > 10 µM | > 10 µM | > 10 µM | > 10 µM | > 10 µM | 97.7% | 95.5% | 96.1% | 95% | 96.9% | 95.7% | 100% | 98.2% | 97.7% | 91.8% | 99.2% | 97.3% | 91% | 91% | 103% | 106% | 96.9% | 96% | 98.8% | 98.1% | 98.1% | 96.4% | 98% | 93.7% | 89.6% | 0 | 0 | 0 | 0 | 0
5 | O=S(=O)(O)c1cc(O)ccc1O [etamsylate] | > 10 µM | > 10 µM | > 10 µM | > 10 µM | > 10 µM | 92.5% | 98.3% | 95.7% | 99% | 104% | 96.2% | 94.5% | 104% | 94.5% | 106% | 89.7% | 100% | 91% | 98.8% | 92.4% | 95.6% | 100% | 106% | 95% | 95.3% | 107% | 105% | 110% | 108% | 97.8% | 0 | 0 | 0 | 0 | 0
6 | Cc1ccc(/C(=C\CN2CCCC2)c2cccc(/C=C/C(=O)O)n2)cc1 [acrivastine] | > 10 µM | > 10 µM | > 10 µM | > 10 µM | > 10 µM | 100% | 103% | 98.4% | 102% | 103% | 98.1% | 87.9% | 99.8% | 85.3% | 112% | 87.6% | 92.3% | 95.4% | 86.8% | 115% | 98.2% | 98.1% | 104% | 116% | 99.1% | 102% | 98.2% | 102% | 98.3% | 95.6% | 0 | 0 | 0 | 0 | 0
7 | CCCCCCCCCCCCCCCC[n+]1ccn(Cc2ccccc2)c1C [NH125] | 1.16 µM | 1.99 µM | 1.2 µM | 1.64 µM | 0.682 µM | 105% | 93.7% | 95.9% | 57.1% | 0.1% | 104% | 106% | 99.5% | 85.2% | 0.3% | 100% | 92.4% | 97% | 59.9% | 0.8% | 99.2% | 99.1% | 89.7% | 82.1% | 23.3% | 96.3% | 106% | 97.2% | 32.6% | 0% | 10.7 | 8 | 10.5 | 7 | 13.6
8 | COc1cc(C(C)=O)ccc1OCCCN1CCC(c2noc3cc(F)ccc23)CC1 [iloperidone] | > 10 µM | > 10 µM | > 10 µM | > 10 µM | > 10 µM | 97.9% | 97.5% | 96.6% | 99.6% | 91% | 101% | 96.7% | 94.7% | 98% | 95.6% | 90.7% | 98.5% | 84.8% | 94.9% | 82% | 93% | 96.7% | 104% | 104% | 80.5% | 91.9% | 91.3% | 94.4% | 94.2% | 88.6% | 0 | 0 | 0.8 | 0.4 | 0
9 | N=C(N)Nc1ccc2[nH]c3c(c2c1)C[C@@]1(O)[C@H]2Cc4ccc(O)c5c4[C@@]1(CCN2CC1CC1)[C@H]3O5 [GNTI] | > 10 µM | > 10 µM | > 10 µM | > 10 µM | > 10 µM | 99.7% | 93.5% | 101% | 101% | 104% | 101% | 97.4% | 104% | 104% | 101% | 99.7% | 95.2% | 99.4% | 95.6% | 102% | 93.8% | 92.7% | 98.3% | 102% | 106% | 99% | 122% | 111% | 98.2% | 88.1% | 0 | 0 | 0 | 0 | 0.1
10 | COc1ccc2c(C(=S)N(C)CC(=O)O)cccc2c1C(F)(F)F [tolrestat] | > 10 µM | > 10 µM | > 10 µM | > 10 µM | > 10 µM | 94.7% | 98.4% | 96.5% | 98% | 99.1% | 94.7% | 95.9% | 93.5% | 91.2% | 96.8% | 92.9% | 95.8% | 90.6% | 98.9% | 89.3% | 103% | 100% | 94.5% | 107% | 98.6% | 91.2% | 98.6% | 94.9% | 94.2% | 103% | 0 | 0 | 0 | 0 | 0
11 | CCCCNc1ccc(C(=O)OCCN(C)C)cc1 [tetracaine] | > 10 µM | > 10 µM | > 10 µM | > 10 µM | > 10 µM | 104% | 97.4% | 98.7% | 98.2% | 102% | 107% | 105% | 103% | 101% | 99.5% | 101% | 92.7% | 105% | 100% | 101% | 107% | 101% | 98.2% | 98.4% | 108% | 99.5% | 99.3% | 104% | 104% | 94.3% | 0 | 0 | 0 | 0 | 0
12 | Cc1ccc(Sc2cncc3sc(C(N)=O)cc23)cc1 | > 10 µM | > 10 µM | > 10 µM | > 10 µM | > 10 µM | 100% | 97.5% | 110% | 108% | 113% | 94.3% | 98.3% | 82% | 91.4% | 98.1% | 97.7% | 92.1% | 96.5% | 89.2% | 90.8% | 95.7% | 102% | 89.6% | 90.9% | 80.6% | 94.4% | 105% | 86.7% | 87.6% | 87.7% | 0 | 0 | 0 | 1.2 | 1.6
13 | COc1cc(/C=C/C(=O)N2CCN(CC(=O)N3CCCC3)CC2)cc(OC)c1OC [cinepazide] | > 10 µM | > 10 µM | > 10 µM | > 10 µM | > 10 µM | 92.6% | 97.5% | 92.1% | 100% | 95.6% | 98.5% | 98.1% | 102% | 100% | 98.6% | 96.4% | 105% | 94.9% | 103% | 91.3% | 104% | 96% | 95.8% | 94% | 101% | 101% | 96.9% | 90.8% | 98.2% | 96.1% | 0 | 0 | 0 | 0 | 0
14 | CCN(CC)CCNC(=O)c1ccc(N)cc1 [procainamide] | > 10 µM | > 10 µM | > 10 µM | > 10 µM | > 10 µM | 94.9% | 97.9% | 98.8% | 101% | 100% | 95.9% | 97.4% | 92.6% | 94.1% | 106% | 88.5% | 97.6% | 96.1% | 105% | 101% | 105% | 110% | 93.5% | 99.5% | 98.7% | 99.9% | 115% | 107% | 102% | 106% | 0 | 0 | 0 | 0 | 0
